Test results: patent US10294228B2, “Breathing control modulating compounds, and methods of making and using same” (NEURAD LTD., priority 2015, dated 2019)
Counter-ions that a name gives are not always drawn.

Legend:
anesthetized rats = experiment: Anesthetized rat spirometry screening assay (ventilatory activity, minute volume); format: in vivo; details: 0.3 mg/kg IV bolus, increase in minute volume (VE), read-out: VE % Inc @ 0.3 mg/kg IV
In short: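 Urethane-anesthetized (1.5 g/kg i.v.) rats with tracheal cannula to pneumotachometer; minute volume derived from respiratory rate × tidal volume. Compounds given as i.v. bolus at 0.1 and/or 0.3 and/or 3 mg/kg, monitored at least 6 min; data as 30 s averages.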

[1] = system: morphine-tolerant rats (CSA model); experiment: Apnea hypopnea index and ventilation during sleep in rats receiving chronic morphine (CSA model); format: in vivo, rat; details: 10 mg/kg PO, FIG. 15
Description: Central sleep apnea (CSA) and hypopnea are especially prevalent in people on chronic opioid therapy. Accordingly, a novel rodent model of chronic opioid-induced sleep disordered breathing that mimics many features of the condition in people was developed.
Morphine was administered chronically to rats in their drinking water at a dose and duration that elicited morphine tolerance. Morphine sulfate was added to the drinking water of individually housed rats beginning at 0.1 mg/ml morphine and increasing the concentration in increments so that a final concentration of 0.6 mg/ml was achieved within 2 weeks of beginning morphine exposure. During the first three weeks after starting morphine administration, rats were acclimated to whole body plethysmography chambers.
Respiratory rate (fR), tidal volume (VT), minute volume (VE), and CSA and hypopnea frequency and length (i.e., duration of each apnea) were measured continuously while animals were unrestrained in whole-body plethysmography chambers. Animals breathed room air for the duration of the study, except where indicated for the hyperoxia validation study. […]
A respiratory waveform was generated from the expansion and contraction of the air that was exchanged between the animal and the chamber. […] The airflow signal was amplified and continuously recorded using PowerLab and LabChart 7.0. […]

[2] = system: rats with evoked obstructions; experiment: Evoked obstructive apnea model; format: in vivo, rat
Description: Two rodent models of obstructive apnea were used: one that modeled spontaneous obstructions (spontaneous obstructive apnea model) which become progressively worse over time, and another (evoked obstructive apnea model) where the investigator retained control over the variables that define OSA severity, such as apnea frequency (f OA) and apnea duration (OA t).
All animal experiments were performed according to protocols approved by the Institutional Animal Care and Use Committee (IACUC) at Galleon Pharmaceuticals, Inc. All experimental procedures were performed under general anesthesia. All experiments were non-survival procedures and animals were euthanized at the conclusion of the experiment prior to the animal recovering from anesthesia. Two rodent models of obstructive apnea were used, one that modeled spontaneous obstructions that become progressively worse over time (Spontaneous Obstructive Apnea Model), and another where the investigator retained control over the parameters that defined OSA severity, such as f OA, and OA t, and by controlling these directly also controlling of the magnitude of oxy-hemoglobin desaturation (Evoked Obstructive Apnea Model).

CCCNc1nc(NC)nc2c(NCC(C)(C)O)nc(NC)nc12 [Compound 31a, 1-(2,6-Bis-methylamino-8-propylamino-pyrimido[5,4-d]pyrimidin-4-ylamino)-2-methyl-propan-2-ol Hydrochloride]
change in vivo at 0.3 mg/kg (anesthetized rats): 69% | apnea-hypopnea index [1]: reduces | minute volume [1]: without significantly increasing | airway (genioglossus, or GG) responses to evoked obstructions ([2]; rats, IV infusion MD 0.008 mg/kg/min 15 min then 0.002 mg/kg/min 45 min, HD 0.024 then 0.006 mg/kg/min, FIG. 21A): increases | diaphragm (DIA) responses to evoked obstructions ([2]; same rats and infusions as FIG. 21A, FIG. 21B): insignificant increases
